The target of assay [1] is HCV NS3/4A protease genotype 1b (Hepatitis C virus genotype 1b, UniProt P26663). As to the kind of experiment: HCV NS3/4A protease time-resolved fluorescence (TRF) assay, Ki against genotype 1b. Type of assay: biochemical. The following applies: IC50 [gt-1b] (nM), NS3/4A genotype 1b, enzyme 0.2 nM. In short, it runs like this:
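Enzyme was pre-incubated 30 min with inhibitor in HEPES pH 7.5 buffer (150 mM NaCl, 15% glycerol, 10 mM DTT). Reaction ran 2.5 h at room temperature with 25 nM europium TRF peptide substrate, read at ex 340/em 615 nm. Enzyme levels: 0.2 nM (1b), 0.4 nM (A156T), 0.025 nM (3a). Ki came from four-parameter IC50 via IC50=Ki(1+[S]/KM).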

For another assay, the system named is HCV genotype 1b replicon. Description: HCV replicon assay, genotype 1b replicon EC50. Type of assay: cell-based, Hepatitis C virus. The following applies: Hepatitis C virus, genotype 1b replicon, read-out: EC50 [gt-1b]. The method in brief:
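Assay format: compound titration on stable replicon cells, no G418 during treatment, 24 to 48 hours. Lysates were assayed for replicon RNA (hybridization/protection or TaqMan) or luciferase; EC50 fitted to four parameters against DMSO.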

The term IC50 denotes the concentration that gives 50% inhibition. Usually EC50 stands for the concentration needed to bring the measured effect to its halfway point.

Where two headings read alike, the source gives them in different places.

In turn, `Cc1nc2ccccc2c2c1O[C@]1(CC2)C[C@H]2C(=O)N[C@]3(C(=O)NS(=O)(=O)C4(C)CC4)C[C@H]3/C=C\CCCCC[C@H](NC(=O)OC(C)(C)C(F)(F)C(F)(F)F)C(=O)N2C1` [Example 300, 3,3,4,4,4-pentafluoro-2-methylbutan-2-yl [(2R,6S,12Z,13aS,14aR,16aS)-5′-methyl-14a-{[(1-methylcyclopropyl)sulfonyl]carbamoyl}-5,16-dioxo-1,1′,2′,5,6,7,8,9,10,11,13a,14,14a,15,16,16a-hexadecahydrospiro[cyclopropa[e]pyrrolo[1,2-a][1,4]diazacyclopentadecine-2,3′-pyrano[2,3-c]quinolin]-6-yl]carbamate] registered an IC50 in assay [1] of 0.021 nM. For the same compound, the EC50 with HCV genotype 1b replicon stood at 3.12 nM.

In the case of `Cc1nc2ccc(OCC(F)(F)F)cc2c2c1O[C@]1(CC2)C[C@H]2C(=O)N[C@]3(C(=O)NS(=O)(=O)C4(C)CC4)C[C@H]3/C=C\CCCCC[C@H](NC(=O)OC(C)(C)C(F)(F)F)C(=O)N2C1` [Example 301, 1,1,1-trifluoro-2-methylpropan-2-yl [(2R,6S,12Z,13aS,14aR,16aS)-5′-methyl-14a-{[(1-methylcyclopropyl)sulfonyl]carbamoyl}-5,16-dioxo-9′-(2,2,2-trifluoroethoxy)-1,1′,2′,5,6,7,8,9,10,11,13a,14,14a,15,16,16a-hexadecahydrospiro[cyclopropa[e]pyrrolo[1,2-a][1,4]diazacyclopentadecine-2,3′-pyrano[2,3-c]quinolin]-6-yl]carbamate], in assay [1], 0.013 nM corresponded to half-maximal inhibition (IC50). Further, in the assay on HCV genotype 1b replicon, the half-maximal effective concentration (EC50) stood at 3.46 nM.

For the compound `Cc1nc2ccc(OCC(F)(F)F)cc2c2c1O[C@]1(CC2)C[C@H]2C(=O)N[C@]3(C(=O)NS(=O)(=O)C4(C)CC4)C[C@H]3/C=C\CCCCC[C@H](NC(=O)OC3(C)CCCC3)C(=O)N2C1` [Example 302, 1-methylcyclopentyl [(2R,6S,12Z,13aS,14aR,16aS)-5′-methyl-14a-{[(1-methylcyclopropyl)sulfonyl]carbamoyl}-5,16-dioxo-9′-(2,2,2-trifluoroethoxy)-1,1′,2′,5,6,7,8,9,10,11,13a,14,14a,15,16,16a-hexadecahydrospiro[cyclopropa[e]pyrrolo[1,2-a][1,4]diazacyclopentadecine-2,3′-pyrano[2,3-c]quinolin]-6-yl]carbamate], 0.006 nM corresponded to half-maximal inhibition in assay [1] (IC50). For the same compound, the EC50 in the assay with HCV genotype 1b replicon was determined as 4.19 nM.

The compound `Cc1nc2ccc(OCC(F)(F)F)cc2c2c1O[C@]1(CC2)C[C@H]2C(=O)N[C@]3(C(=O)NS(=O)(=O)C4(C)CC4)C[C@H]3/C=C\CCCCC[C@H](NC(=O)OCC(C)(C)C)C(=O)N2C1` [Example 303, 2,2-dimethylpropyl [(2R,6S,12Z,13aS,14aR,16aS)-5′-methyl-14a-{[(1-methylcyclopropyl)sulfonyl]carbamoyl}-5,16-dioxo-9′-(2,2,2-trifluoroethoxy)-1,1′,2′,5,6,7,8,9,10,11,13a,14,14a,15,16,16a-hexadecahydrospiro[cyclopropa[e]pyrrolo[1,2-a][1,4]diazacyclopentadecine-2,3′-pyrano[2,3-c]quinolin]-6-yl]carbamate] returned an IC50 in assay [1] of 0.012 nM. The EC50 with HCV genotype 1b replicon was determined as 5.79 nM.

In turn, `Cc1nc2ccccc2c2c1O[C@]1(CC2)C[C@H]2C(=O)N[C@]3(C(=O)NS(=O)(=O)C4(C)CC4)C[C@H]3/C=C\CCCCC[C@H](NC(=O)OC(C)(C)CCS(=O)(=O)C(C)C)C(=O)N2C1` [Example 304, 2-methyl-4-(propan-2-ylsulfonyl)butan-2-yl [(2R,6S,12Z,13aS,14aR,16aS)-5′-methyl-14a-{[(1-methylcyclopropyl)sulfonyl]carbamoyl}-5,16-dioxo-1,1′,2′,5,6,7,8,9,10,11,13a,14,14a,15,16,16a-hexadecahydrospiro[cyclopropa[e]pyrrolo[1,2-a][1,4]diazacyclopentadecine-2,3′-pyrano[2,3-c]quinolin]-6-yl]carbamate] returned a concentration for half-maximal inhibition (IC50) in assay [1] of 0.027 nM. Also, the EC50 in the assay with HCV genotype 1b replicon was 99.6 nM.

In assay [1], `Cc1nc2ccc(OC(F)(F)F)cc2c2c1O[C@]1(CC2)C[C@H]2C(=O)N[C@]3(C(=O)NS(=O)(=O)C4(C)CC4)C[C@H]3/C=C\CCCCC[C@H](NC(=O)OC(C)(C)CCS(=O)(=O)C(C)C)C(=O)N2C1` [Example 305, 2-methyl-4-(propan-2-ylsulfonyl)butan-2-yl [(2R,6S,12Z,13aS,14aR,16aS)-5′-methyl-14a-{[(1-methylcyclopropyl)sulfonyl]carbamoyl}-5,16-dioxo-9′-(trifluoromethoxy)-1,1′,2′,5,6,7,8,9,10,11,13a,14,14a,15,16,16a-hexadecahydrospiro[cyclopropa[e]pyrrolo[1,2-a][1,4]diazacyclopentadecine-2,3′-pyrano[2,3-c]quinolin]-6-yl]carbamate] displayed a concentration for half-maximal inhibition (IC50) of 0.029 nM. The EC50 in the assay on HCV genotype 1b replicon came out at 35.2 nM.

Turning to `CC(C)(C)OC(=O)N[C@H]1CCCCC/C=C\[C@@H]2C[C@@]2(C(=O)NS(=O)(=O)C2(C)CC2)NC(=O)[C@@H]2C[C@]3(CCc4c(c(C(F)F)nc5ccccc45)O3)CN2C1=O` [Example 306, tert-butyl [(2R,6S,12Z,13aS,14aR,16aS)-5′-(difluoromethyl)-14a-{[(1-methylcyclopropyl)sulfonyl]carbamoyl}-5,16-dioxo-1,1′,2′,5,6,7,8,9,10,11,13a,14,14a,15,16,16a-hexadecahydrospiro[cyclopropa[e]pyrrolo[1,2-a][1,4]diazacyclopentadecine-2,3′-pyrano[2,3-c]quinolin]-6-yl]carbamate], in assay [1], the IC50 was found to be 0.015 nM. The EC50 in the assay on HCV genotype 1b replicon was 1.87 nM.

In assay [1], `Cc1nc2ccccc2c2c1O[C@]1(CC2)C[C@H]2C(=O)N[C@]3(C(=O)NS(=O)(=O)C4(C)CC4)C[C@H]3/C=C\CCCCC[C@H](NC(=O)OC(C)(C(F)(F)F)C(F)(F)F)C(=O)N2C1` [Example 307, 1,1,1,3,3,3-hexafluoro-2-methylpropan-2-yl [(2R,6S,12Z,13aS,14aR,16aS)-5′-methyl-14a-{[(1-methylcyclopropyl)sulfonyl]carbamoyl}-5,16-dioxo-1,1′,2′,5,6,7,8,9,10,11,13a,14,14a,15,16,16a-hexadecahydrospiro[cyclopropa[e]pyrrolo[1,2-a][1,4]diazacyclopentadecine-2,3′-pyrano[2,3-c]quinolin]-6-yl]carbamate] displayed an IC50 of 0.019 nM. In addition, the 50% effective concentration (EC50) in the assay with HCV genotype 1b replicon is 1080 nM.

For `Cc1nc2ccc(OCC(F)(F)F)cc2c2c1O[C@]1(CC2)C[C@H]2C(=O)N[C@]3(C(=O)NS(=O)(=O)C4(C)CC4)C[C@H]3/C=C\CCCCC[C@H](NC(=O)OC(C)(C(F)(F)F)C(F)(F)F)C(=O)N2C1` [Example 308, 1,1,1,3,3,3-hexafluoro-2-methylpropan-2-yl [(2R,6S,12Z,13aS,14aR,16aS)-5′-methyl-14a-{[(1-methylcyclopropyl)sulfonyl]carbamoyl}-5,16-dioxo-9′-(2,2,2-trifluoroethoxy)-1,1′,2′,5,6,7,8,9,10,11,13a,14,14a,15,16,16a-hexadecahydrospiro[cyclopropa[e]pyrrolo[1,2-a][1,4]diazacyclopentadecine-2,3′-pyrano[2,3-c]quinolin]-6-yl]carbamate], the IC50 in assay [1] was 0.006 nM. In the assay with HCV genotype 1b replicon, the half-maximal effective concentration (EC50) was determined as 416 nM.

The compound `CC(C)(OC(=O)N[C@H]1CCCCC/C=C\[C@@H]2C[C@@]2(C(=O)NS(=O)(=O)C2(C)CC2)NC(=O)[C@@H]2C[C@]3(CCc4c(c(C(F)F)nc5ccccc45)O3)CN2C1=O)C(F)(F)F` [Example 309, 1,1,1-trifluoro-2-methylpropan-2-yl [(2R,6S,12Z,13aS,14aR,16aS)-5′-(difluoromethyl)-14a-{[(1-methylcyclopropyl)sulfonyl]carbamoyl}-5,16-dioxo-1,1′,2′,5,6,7,8,9,10,11,13a,14,14a,15,16,16a-hexadecahydrospiro[cyclopropa[e]pyrrolo[1,2-a][1,4]diazacyclopentadecine-2,3′-pyrano[2,3-c]quinolin]-6-yl]carbamate] registered a half-maximal inhibitory concentration (IC50) in assay [1] of 0.01 nM. Also, the EC50 in the assay on HCV genotype 1b replicon turned out to be 1.94 nM.

Consider `Cc1nc2ccc(OC(F)F)cc2c2c1O[C@]1(CC2)C[C@H]2C(=O)N[C@]3(C(=O)NS(=O)(=O)C4(C)CC4)C[C@H]3/C=C\CCCCC[C@H](NC(=O)OC(C)(C)C(F)(F)F)C(=O)N2C1` [Example 310, 1,1,1-trifluoro-2-methylpropan-2-yl [(2R,6S,12Z,13aS,14aR,16aS)-9′-(difluoromethoxy)-5′-methyl-14a-{[(1-methylcyclopropyl)sulfonyl]carbamoyl}-5,16-dioxo-1,1′,2′,5,6,7,8,9,10,11,13a,14,14a,15,16,16a-hexadecahydrospiro[cyclopropa[e]pyrrolo[1,2-a][1,4]diazacyclopentadecine-2,3′-pyrano[2,3-c]quinolin]-6-yl]carbamate], for which, in assay [1] (K+ salt), the concentration for half-maximal inhibition (IC50) was determined as 0.008 nM. Besides, the concentration for a half-maximal effect (EC50) in the assay with HCV genotype 1b replicon (K+ salt) was 5.66 nM.

In assay [1], `CC(C)(C)COC(=O)N[C@H]1CCCCC/C=C\[C@@H]2C[C@@]2(C(=O)NS(=O)(=O)C2(C)CC2)NC(=O)[C@@H]2C[C@]3(CCc4c(c(C(F)F)nc5ccccc45)O3)CN2C1=O` [Example 311, 2,2-dimethylpropyl [(2R,6S,12Z,13aS,14aR,16aS)-5′-(difluoromethyl)-14a-{[(1-methylcyclopropyl)sulfonyl]carbamoyl}-5,16-dioxo-1,1′,2′,5,6,7,8,9,10,11,13a,14,14a,15,16,16a-hexadecahydrospiro[cyclopropa[e]pyrrolo[1,2-a][1,4]diazacyclopentadecine-2,3′-pyrano[2,3-c]quinolin]-6-yl]carbamate] came in with an IC50 of 0.008 nM. In the assay with HCV genotype 1b replicon, the concentration giving a half-maximal response (EC50) turned out to be 1.23 nM.
